Assays:
Format in all cases: cell-based
[1] = system: human colorectal cancer HCT-116 cells; test: MTT cytotoxicity assay, HCT-116; conditions: Homo sapiens, MTT, 72 h, n = 3, ± SD, read-out: Adhesive Cell Cultures, IC50 HCT-116
Description: (§1) All newly synthesized PPA derivatives 1–8 were evaluated for their anti-proliferative activity against human breast cancer MCF-7, human prostate adenocarcinoma PC-3, human colorectal cancer HCT-116, human lung cancer A549, human chronic myelogenous leukemia K562, human acute monocytic leukemia THP-1, human multiple myeloma RPMI8226, human acute T-cell leukemia Jurkat, human multiple myeloma NCI-H929, and human embryonic fibroblasts HEF cell lines by MTT assays. All cells were incubated with different concentrations of PPA derivatives for 72 h, with etoposide and PPA used as reference compounds. The anticancer activity of the tested compounds was described as the concentration of drug inhibiting 50% cell growth IC50 (Table 1 and Table 2).
(§2) ^1H-NMR spectra were acquired on an AVANCE III 400 MHz NMR spectrometer (Bruker, Rheinstetten, Germany) in CDCl3. Optical rotations were acquired on a Polaar 3005 Polarimeter (Optical Activity, Huntingdon, Great Britain) using a 2.5 cm cell with a Na 589 nm filter and the concentration of samples was denoted as c. Mass spectra data were acquired on a TSQ Quantum Access Max Mass spectrometer (Thermo Fisher Scientific, Waltham, MA, USA). High-resolution mass spectra (HRMS) were acquired on a LTQ Orbitrap Velos spectrometer (Thermo Scientific) and on a Bruker MicrOTOF. FTIR spectra were acquired on an IR Affinity-1 spectrometer (Shimadzu, Thermo Scientific). Organic solvents used were dried by standard methods when necessary. Commercially available reagents were used without further purification. All reactions were monitored by TLC with silica gel coated plates (EMD/Merck KGaA, Darmstadt, Germany), with visualization by UV light and by charring with 0.1% ninhydrin in EtOH. Column chromatography was performed using Merck 60 Å 70–230 mesh silica gel. The optical density was determined using a Multiskan FC spectrophotometer (Thermo Scientific) at a wavelength of 540 nm when using the MTT assay.
(§3) MCF-7 (breast cancer), PC-3 (prostate adenocarcinoma), HCT-116 (colorectal cancer cell), A549 (lung cancer), K562 (chronic myelogenous leukemia), THP-1 (acute monocytic leukemia), and RPMI8226 (multiple myeloma), Jurkat (acute T-cell leukemia), HEF (human embryonic fibroblasts) was purchased from the Russian Academy of Sciences Cells Bank (Institute of Cytology of the Russian Academy of Sciences, Saint Petersburg, Russian Federation). Multiple myeloma cell line NCI-H929 was purchased from ATCC (USA). The MCF-7, A549 and HEF (human embryonic fibroblasts) were cultured in DMEM medium. Other cell lines were cultured in RPMI1640 medium, (PanEco, Russia) supplemented with 10% fetal bovine serum (GE Healthcare LifeSciences, São Paulo, Brazil), and gentamicin at a concentration of 40 μg/mL and cultured at 37 °C in a humidified atmosphere containing 5% CO2. All experiments were performed with cells at passages 3 to 7 in the logarithmic phase of growth.
(§4) Cells were seeded into 96-well plates of 5 × 10^3 for adhesive cultures and 20 × 10^3 for suspension cultures per well in 90 μL and 135 μL of culture medium, respectively. The test substances were dissolved in DMSO to a concentration of 1 × 10^−2 M. For subsequent dilution of the substances, a serum-free culture medium was used as the diluent. Final concentration of DMSO in wells was no more than 1%. […] Substances were added to the cells in 3–4 replicates after 24 h for adhesive cultures and immediately for suspension cultures. 10–15 μL of serum-free medium was added to the control wells with non-exposed cells. Cells were cultured for 72 h at 37 °C in an atmosphere of 5% CO2.

[2] = system: human prostate adenocarcinoma PC-3 cells; test: MTT cytotoxicity assay, PC-3; conditions: Homo sapiens, MTT, 72 h, n = 3, ± SD, read-out: Adhesive Cell Cultures, IC50 PC-3
Description: as §1, §2, §3, §4

[3] = system: human breast cancer MCF-7 cells; test: MTT cytotoxicity assay, MCF-7; conditions: MCF7, 72 h, n = 3, ± SD, read-out: Adhesive Cell Cultures, IC50 MCF-7
Description: as §1, §2, §3, §4

[4] = system: human lung cancer A549 cells; test: MTT cytotoxicity assay, A549; conditions: 72 h, n = 3, ± SD, read-out: Adhesive Cell Cultures, IC50 A549
Description: as §1, §2, §3, §4

[5] = system: human embryonic fibroblasts HEF; test: MTT cytotoxicity assay, HEF (control cells); conditions: Fibroblast, 72 h, n = 3, ± SD, read-out: Adhesive Cell Cultures, IC50 HEF
Description: as §1, §2, §3, §4

[6] = system: human chronic myelogenous leukemia K562 cells; test: MTT cytotoxicity assay, K562; conditions: Homo sapiens, MTT, 72 h, n = 3, ± SD, read-out: Suspension Cell Cultures, IC50 К562
Description: as §1, §2, §3, §4

[7] = system: human multiple myeloma NCI-H929 cells; test: MTT cytotoxicity assay, NCI-H929; conditions: Homo sapiens, MTT, 72 h, n = 3, ± SD, read-out: Suspension Cell Cultures, IC50 NCI-Н929
Description: as §1, §2, §3, §4

[8] = system: human acute T-cell leukemia Jurkat cells; test: MTT cytotoxicity assay, Jurkat; conditions: Homo sapiens, MTT, 72 h, n = 3, ± SD, read-out: Suspension Cell Cultures, IC50 Jurkat
Description: as §1, §2, §3, §4

[9] = system: human acute monocytic leukemia THP-1 cells; test: MTT cytotoxicity assay, THP-1; conditions: 72 h, n = 3, ± SD, read-out: Suspension Cell Cultures, IC50 THP-1
Description: as §1, §2, §3, §4

[10] = system: human multiple myeloma RPMI8226 cells; test: MTT cytotoxicity assay, RPMI8226; conditions: Homo sapiens, RPMI-8226; MTT, 72 h, n = 3, ± SD; read-out: Suspension Cell Cultures, IC50 RPMI8228
Description: as §1, §2, §3, §4

For `C=C1C2=C(C(=O)N1OC)[C@@H](NC)[C@@](C)(O)[C@H](CCCCC)O2` [Compound 1, (2S,3R,4R)-3-Hydroxy-6-methoxy-3-methyl-4-(methylamino)-7-methylene-2-pentyl-3,4,6,7-tetrahydro-pyrano[2,3-c]pyrrol-5(2H)-one], the IC50 [1] was 3.68 ± 0.81 µM, the IC50 [2] was 3.35 ± 0.92 µM and the IC50 [3] was 4.1 ± 0.44 µM. For the same compound, the IC50 [4] was 12.7 ± 0.4 µM, the IC50 [5] was 22.3 ± 0.44 µM and the IC50 [6] was 3.25 ± 0.64 µM. For the same compound, the IC50 [7] was 1.35 ± 0.69 µM, the IC50 [8] was 2.75 ± 0.21 µM and the IC50 [9] was 2.25 ± 0.21 µM. The IC50 [10] was 3.97 ± 0.68 µM.

With `C=C1C2=C(C(=O)N1OC)[C@@H](NCCO)[C@@](C)(O)[C@H](CCCCC)O2` [Compound 2, (2S,3R,4R)-3-Hydroxy-4-[(2-hydroxyethyl)amino]-6-methoxy-3-methyl-7-methylene-2-pentyl-3,4,6,7-tetra-hydropyrano[2,3-c]pyrrol-5(2H)-one] the IC50 [1] was 4.63 ± 0.04 µM, the IC50 [2] was 5.55 ± 1.48 µM and the IC50 [3] was 3.23 ± 1.07 µM. The IC50 [4] was 15.1 ± 0.45 µM, the IC50 [5] was 16.2 ± 0.26 µM and the IC50 [6] was 5.5 ± 0.57 µM. For the same compound, the IC50 [7] was 2.05 ± 0.35 µM, the IC50 [8] was 2.6 ± 0.99 µM and the IC50 [9] was 2.3 ± 0.57 µM. It also gave an IC50 [10] of 3.5 ± 0.82 µM.

With `C=C1C2=C(C(=O)N1OC)[C@@H](NCCCCO)[C@@](C)(O)[C@H](CCCCC)O2` [Compound 3, (2S,3R,4R)-3-Hydroxy-4-[(4-hydroxybutyl)amino]-6-methoxy-3-methyl-7-methylene-2-pentyl-3,4,6,7-tetra-hydropyrano[2,3-c]pyrrol-5(2H)-one] the IC50 [1] was 2.9 ± 0.98 µM, the IC50 [2] was 4.5 ± 1.56 µM and the IC50 [3] was 3.05 ± 1.2 µM. The IC50 [5] was 15.2 ± 1.02 µM, the IC50 [6] was 6.7 ± 0.28 µM and the IC50 [7] was 1.95 ± 0.21 µM. The IC50 [8] was 3.15 ± 1.77 µM, the IC50 [9] was 2.6 ± 0.57 µM and the IC50 [10] was 2.7 ± 0.28 µM.

Compound `C=CCN[C@@H]1C2=C(O[C@@H](CCCCC)[C@]1(C)O)C(=C)N(OC)C2=O` [Compound 4, (2S,3R,4R)-4-(Allylamino)-3-hydroxy-6-methoxy-3-methyl-7-methylene-2-pentyl-3,4,6,7-tetrahydropyrano-[2,3-c]pyrrol-5(2H)-one] has an IC50 [1] of 8.4 ± 0.24 µM, an IC50 [2] of 6.37 ± 0.18 µM and an IC50 [3] of 4.13 ± 0.23 µM. It also gave an IC50 [4] of 12.7 ± 0.27 µM, an IC50 [5] of 5.03 ± 0.15 µM and an IC50 [6] of 10.5 ± 0.41 µM. The IC50 [7] was 2.35 ± 0.09 µM, the IC50 [8] was 3.27 ± 0.07 µM and the IC50 [9] was 3.32 ± 0.1 µM. The IC50 [10] was 6 ± 0.13 µM.

For `C=C1C2=C(C(=O)N1OC)[C@@H](NCc1ccccc1)[C@@](C)(O)[C@H](CCCCC)O2` [Compound 5, (2S,3R,4R)-4-(benzylamino)-3-hydroxy-6-methoxy-3-methyl-7-methylene-2-pentyl-3,4,6,7-tetrahydro-pyrano[2,3-c]pyrrol-5(2H)-one], the IC50 [1] was 12.9 ± 0.3 µM, the IC50 [2] was 24.7 ± 1.24 µM and the IC50 [3] was 35.7 ± 0.65 µM. It also gave an IC50 [4] of 37.5 ± 1.33 µM, an IC50 [5] of 53.1 ± 1.06 µM and an IC50 [6] of 14.1 ± 0.48 µM. For the same compound, the IC50 [8] was 10.1 ± 0.44 µM, the IC50 [9] was 15.1 ± 0.36 µM and the IC50 [10] was 16 ± 0.16 µM.

`C=C1C2=C(C(=O)N1OC)[C@@H](N1CCC(N3CCCC3)CC1)[C@@](C)(O)[C@H](CCCCC)O2` [Compound 7, (2S,3R,4R)-3-Hydroxy-6-methoxy-3-methyl-7-methylene-2-pentyl-4-(4-pyrrolidin-1-ylpiperidin-1-yl)-3,4,6,7-tetrahydropyrano[2,3-c]pyrrol-5(2H)-one] was tested, and the IC50 [1] was 1.65 ± 0.63 µM, the IC50 [2] was 3.65 ± 0.64 µM and the IC50 [3] was 1.8 ± 0.44 µM. The IC50 [4] was 12.2 ± 0.2 µM, the IC50 [5] was 22.3 ± 0.33 µM and the IC50 [6] was 6.03 ± 0.91 µM. It also gave an IC50 [7] of 2 ± 0.26 µM, an IC50 [8] of 2.73 ± 1.53 µM and an IC50 [9] of 3.45 ± 0.21 µM. It also gave an IC50 [10] of 3.35 ± 1.48 µM.

`C=C1C2=C(C(=O)N1OC)[C@@H](N1CCC(O)CC1)[C@@](C)(O)[C@H](CCCCC)O2` [Compound 8, (2S,3R,4R)-3-Hydroxy-4-(4-hydroxypiperidin-1-yl)-6-methoxy-3-methyl-7-methylene-2-pentyl-3,4,6,7-tetra-hydropyrano[2,3-c]pyrrol-5(2H)-one] showed an IC50 [1] of 2.64 ± 0.05 µM, an IC50 [2] of 4.53 ± 0.4 µM and an IC50 [3] of 3.2 ± 0.52 µM. It also gave an IC50 [4] of 9.4 ± 0.14 µM, an IC50 [5] of 6.7 ± 0.23 µM and an IC50 [6] of 4.9 ± 2.4 µM. For the same compound, the IC50 [7] was 1.87 ± 0.25 µM, the IC50 [8] was 2.6 ± 1.13 µM and the IC50 [9] was 2.1 ± 0.28 µM. For the same compound, the IC50 [10] was 1.4 ± 0.28 µM.

With `C=C1C2=C(C(=O)N1OC)[C@H](O)[C@@](C)(O)[C@H](CCCCC)O2` [PPA, phaeosphaeride A] the IC50 [1] was 24.2 ± 0.75 µM, the IC50 [2] was 32.1 ± 0.77 µM and the IC50 [3] was 20.3 ± 0.8 µM. For the same compound, the IC50 [4] was 41.1 ± 2.6 µM, the IC50 [5] was 19.1 ± 0.25 µM and the IC50 [6] was 20.5 ± 1.46 µM. For the same compound, the IC50 [7] was 6.5 ± 0.3 µM, the IC50 [8] was 9.7 ± 0.42 µM and the IC50 [9] was 19.1 ± 0.45 µM. The IC50 [10] was 9.15 ± 0.64 µM.

Source: article PMC6278656, “Synthesis and Biological Evaluation of Phaeosphaeride A Derivatives as Antitumor Agents” (Molecules, 2018)
